Data: publication PMC5584805 (Biochemistry, 2016)
“And” between values parts separate entries of the source, which are not always exact repeats. Equal values may be shown once. Read-outs that look alike come from different tables or passages of the source. Marks after values point to notes of the source that are not given here.

Assays:
[1] = target: T1, Escherichia coli CTP synthetase (EcCTPS) (Escherichia coli, UniProt P0A7E5); assay: CTP synthesis assay; conditions: for IC50^ox/IC50^red: ratio of oxidized to reduced form IC50, standard conditions; for apparent kcat at 2 μM EcCTPS: annealing at 40 μM EcCTPS; for EC50: EC50 (activation); for Ki: Ki (two-site model); for Kd: best fit
T1 sequence (P0A7E5 whole entry): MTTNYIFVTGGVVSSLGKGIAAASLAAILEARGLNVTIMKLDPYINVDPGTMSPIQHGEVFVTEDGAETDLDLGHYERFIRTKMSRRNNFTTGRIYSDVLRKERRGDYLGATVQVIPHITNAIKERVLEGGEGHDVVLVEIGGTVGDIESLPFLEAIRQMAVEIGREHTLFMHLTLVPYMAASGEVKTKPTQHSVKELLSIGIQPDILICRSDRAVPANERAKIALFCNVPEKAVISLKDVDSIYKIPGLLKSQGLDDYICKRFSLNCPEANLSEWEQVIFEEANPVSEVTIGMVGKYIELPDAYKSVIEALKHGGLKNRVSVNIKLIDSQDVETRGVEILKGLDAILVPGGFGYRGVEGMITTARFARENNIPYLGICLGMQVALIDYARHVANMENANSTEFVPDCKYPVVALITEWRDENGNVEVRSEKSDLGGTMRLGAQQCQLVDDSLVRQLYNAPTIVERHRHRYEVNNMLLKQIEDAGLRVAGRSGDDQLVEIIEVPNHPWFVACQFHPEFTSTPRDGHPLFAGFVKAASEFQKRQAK

E277R EcCTPS = E277R EcCTPS (Escherichia coli, UniProt P0A7E5, E277R); assay: CTP synthesis assay, filament-blocking mutant E277R EcCTPS; type: biochemical
Sequence of E277R EcCTPS (P0A7E5 whole entry E277R): as the sequence (P0A7E5 whole entry) above, with E277R counted along it

[2] = target: T1, Escherichia coli CTP synthetase (EcCTPS); conditions: read-out: IC50 (inhibition of CTP synthesis); higher GTP concentrations; cited from earlier work
[3] = tested on: CTPS glutamine hydrolysis; conditions: low concentrations (0–200 μM); cited from earlier work
EcCTPS = EcCTPS (Escherichia coli, UniProt P0A7E5); assay: Ammonia-dependent CTP synthesis; type: biochemical; conditions: Figure S6
Sequence of EcCTPS (P0A7E5 whole entry): as the sequence (P0A7E5 whole entry) above

[4] = 100 nM enzyme, other substrates saturating, 200 μM GTP
[5] = standard: 200 nM EcCTPS, 1.5 mM ATP, 600 μM UTP, 10 mM glutamine, 200 μM GTP (unless GTP titrated), linear extrapolation
[6] = inhibitor alone, activating GTP (50 or 200 μM)
[7] = IC50, standard: 200 nM EcCTPS, 1.5 mM ATP, 600 μM UTP, 10 mM glutamine, 200 μM GTP (unless GTP titrated), linear extrapolation
[8] = limiting substrate titrated, other substrates saturating, 200 μM GTP, 37 °C
[9] = two ligands present (second inhibitor)

What does the source list for NC(=O)CC[C@H](N)C(=O)O [glutamine]?
Hill coeff, nH [1, 4]: 1.1 ± 0.1 (11); S0.5 [1, 4]: 360 ± 20^e μM

For NC(=O)c1ccc[n+]([C@@H]2O[C@H](COP(=O)([O-])OP(=O)(O)OC[C@H]3O[C@@H](n4cnc5c(N)ncnc54)[C@H](O)[C@@H]3O)[C@@H](O)[C@H]2O)c1 [NAD^+, nicotinamide adenine dinucleotide (oxidized)], which “fold less effective inhibition than NADH” value ([1]; standard conditions) is on record?
The value was ~ 3 fold.

And the IC50 [1, 5]?
Its IC50 is 1700 ± 70 µM.

For CN1C=CCC(C(N)=O)=C1 [1MDHN, 1-methyl 1,4-dihydronicotinamide], which “increase of inhibition potency” value ([1]; by 400 μM CTP) is on record?
The value was “more than 2 fold”.

What about the “K2/K1 (sequential binding model)” value [1, 6] of the same compound?
The value was 4–40.

And the “K3/K2 (sequential binding model)” value [1, 6]?
Its value is 0.2–0.8.

What about the “IC50^ox/IC50^red” value [1] of the same compound?
Its value is greater than 28.

And the IC50 [1, 5]?
Its IC50 is 140 ± 10 µM.

Which IC50 [1, 5] does the source give for NC(=O)c1ccc[n+]([C@@H]2O[C@H](COP(=O)([O-])OP(=O)(O)OC[C@H]3O[C@@H](n4cnc5c(N)ncnc54)[C@H](OP(=O)(O)O)[C@@H]3O)[C@@H](O)[C@H]2O)c1 [NADP^+, nicotinamide adenine dinucleotide 2’-phosphate (oxidized)] here?
The IC50 was 1280 ± 50 µM.

For Nc1nc2c(ncn2[C@@H]2O[C@H](COP(=O)(O)OP(=O)(O)OP(=O)(O)O)[C@@H](O)[C@H]2O)c(=O)[nH]1 [GTP, guanosine-5’-triphosphate], which EC50 (E277R EcCTPS) is on record?
Its EC50 is 46 ± 6 µM.

What about the IC50 (E277R EcCTPS) of the same compound?
Its IC50 is 697 ± 4 µM.

What about the Ki (E277R EcCTPS) of the same compound?
The Ki was 342 µM.

And the “kact (two-site model)” value (E277R EcCTPS; 200 nM E277R)?
The value was 10.7 s⁻¹.

And the “ninh (two-site model)” value (E277R EcCTPS; 200 nM E277R)?
Its value is 3.8.

What about the IC50 [2] of the same compound?
Its IC50 is roughly 500 µM.

And the “activation of glutamine hydrolysis” value [3]?
The value was “up to 50 fold”.

And the “kact (two-site activation/inhibition model)” value ([1]; 200 nM WT, no other inhibitor)?
Its value is 10.7 s⁻¹.

And the “ninh (two-site model)” value ([1]; 200 nM WT, no other inhibitor)?
Its value is 4.7.

What about the “kact (two-site model)” value ([1]; 4 μM WT) of the same compound?
Its value is 4.7 s⁻¹.

And the “ninh (two-site model)” value ([1]; 4 μM WT)?
The value was 4.1.

What about the “enzyme concentration for 50% autoinhibition” value ([1]; 50 μM GTP) of the same compound?
The value was 6.1 µM.

And the “apparent kcat at 2 μM EcCTPS” value ([1]; 50 μM GTP)?
The value was 2.9 s⁻¹.

What about the “enzyme concentration for 50% autoinhibition” value ([1]; 200 μM GTP) of the same compound?
The value was 3.9 µM.

What about the “apparent kcat at 2 μM EcCTPS” value ([1]; 200 μM GTP) of the same compound?
The value was 5.0 ± 0.1 s⁻¹.

What about the “enzyme concentration for 50% autoinhibition” value ([1]; 500 μM GTP) of the same compound?
The value was 2.8 µM.

And the “apparent kcat at 2 μM EcCTPS” value ([1]; 500 μM GTP)?
The value was 2.7 ± 1.0 s⁻¹.

And the EC50 ([1]; 4 μM WT EcCTPS)?
Its EC50 is 27 ± 7 µM.

And the EC50 ([1]; standard: 200 nM EcCTPS, 1.5 mM ATP, 600 μM UTP, 10 mM glutamine)?
Its EC50 is ~38 µM and 38 µM.

And the IC50 ([1]; IC50, 4 μM WT EcCTPS)?
Its IC50 is 455 ± 46 µM.

What about the IC50 [1, 7] of the same compound?
The IC50 was 540 ± 60 µM.

What about the Ki ([1]; 200 nM WT, no other inhibitor) of the same compound?
Its Ki is 301 µM.

And the Ki ([1]; 4 μM WT)?
The Ki was 221 µM.

What about the “optimal GTP concentration” value ([1]; in presence of 500 μM NADH) of the same compound?
The value was “approximately 100 μM”.

And the “concentration of maximum activation” value ([1]; standard conditions)?
The value was ~ 200 μM.

For O=c1ccn([C@@H]2O[C@H](COP(=O)(O)OP(=O)(O)OP(=O)(O)O)[C@@H](O)[C@H]2O)c(=O)[nH]1 [UTP, uridine-5’- triphosphate], which “Hill coeff, nH” value [1, 4] is on record?
The value was 1.3 ± 0.2.

What about the S0.5 [1, 4] of the same compound?
Its S0.5 is 57 ± 8 µM.

And the “Hill coeff, nH” value ([1]; 150 μM ATP (subsaturating))?
Its value is 1.8 ± 0.1 (6).

What about the S0.5 ([1]; 150 μM ATP (subsaturating)) of the same compound?
The S0.5 was 200 ± 40 µM.

And the “Hill coeff, nH” value [1, 8]?
Its value is 1.4 ± 0.3 (23)^b.

Which “dose–response of E277R compared with wild-type” value (E277R EcCTPS; 200 nM enzyme, 0–1500 μM NADH) does the source give for NC(=O)C1=CN([C@@H]2O[C@H](COP(=O)(O)OP(=O)(O)OC[C@H]3O[C@@H](n4cnc5c(N)ncnc54)[C@H](O)[C@@H]3O)[C@@H](O)[C@H]2O)C=CC1 [NADH, 1,4 dihydronicotinamide adenine dinucleotide (reduced)] here?
The value was “no significant differences between wild-type and mutant”.

What about the “effect on ammonia-dependent synthesis” value (EcCTPS) of the same compound?
The value was “inhibits”.

And the IC50 ([1]; 50 μM GTP, otherwise standard)?
The IC50 was 770 ± 30 µM.

And the “dependence of inhibition potency on enzyme concentration” value ([1]; Figure S4)?
Its value is “independent of enzyme concentration from 50 to 400 nM”.

What about the inhibition ([1]; at 1250 μM, standard conditions) of the same compound?
The inhibition was “greater than 95%”.

What about the “increase of inhibition potency” value ([1]; by 400 μM CTP) of the same compound?
The value was ~ 2.1 fold.

What about the “K2/K1 (sequential binding model)” value [1, 6] of the same compound?
The value was 4–40.

What about the “K3/K2 (sequential binding model)” value [1, 6] of the same compound?
Its value is 0.2–0.8.

What about the “IC50^ox/IC50^red” value [1] of the same compound?
Its value is 3.7.

And the IC50 [1, 5]?
Its IC50 is 470 ± 40 µM.

What about the “K2/K1 (sequential binding model)” value [1, 9] of the same compound?
Its value is 0.4–0.8.

And the “K3/K2 (sequential binding model)” value [1, 9]?
Its value is 40–250.

With Nc1ccn([C@@H]2O[C@H](COP(=O)(O)OP(=O)(O)OP(=O)(O)O)[C@@H](O)[C@H]2O)c(=O)n1 [CTP, cytidine-5’-triphosphate] as the compound, how does the inhibition at 750 µM [1] read?
Its inhibition at 750 µM is 85%.

And the “limiting slope of Hill plot, high concentration range” value ([1]; 50 μM UTP, 100 nM EcCTPS)?
The value was −1.9 ± 0.3.

What about the “limiting slope of Hill plot, low concentration range” value ([1]; 50 μM UTP, 100 nM EcCTPS) of the same compound?
The value was −0.6 ± 0.2.

What about the IC50 ([1]; IC50, 50 μM GTP, otherwise standard) of the same compound?
The IC50 was 620 ± 30 µM.

And the IC50 ([1]; IC50, 500 μM GTP, otherwise standard)?
Its IC50 is 220 ± 60 µM.

What about the IC50 [1, 7] of the same compound?
Its IC50 is ~370 µM and 370 µM.

And the Kd ([1]; K1 (four-site sequential binding model), standard conditions)?
Its Kd is 446 µM.

What about the Kd ([1]; K2 (four-site sequential binding model), standard conditions) of the same compound?
The Kd was 2120 µM.

And the Kd ([1]; K3 (four-site sequential binding model), standard conditions)?
The Kd was 1170 µM.

And the Kd ([1]; K4 (four-site sequential binding model), standard conditions)?
Its Kd is 7.5 µM.

And the “increase of inhibition potency” value ([1]; by 500 μM NADH)?
The value was 2.3 fold.

What about the IC50 ([1]; fit IC50 value (four-site sequential binding model), standard conditions) of the same compound?
Its IC50 is 385 µM.

And the “K2/K1 (sequential binding model)” value [1, 6]?
The value was 4–40.

And the “K3/K2 (sequential binding model)” value [1, 6]?
The value was 0.2–0.8.

What about the “IC50 relative to UTP concentration (fold lower)” value ([1]; saturating UTP (600 μM)) of the same compound?
The value was 1.6 fold.

And the “average slope of Hill plot” value ([1]; standard conditions)?
Its value is −2.0.

What about the “K2/K1 (sequential binding model)” value [1, 9] of the same compound?
The value was 0.4–0.8.

What about the “K3/K2 (sequential binding model)” value [1, 9] of the same compound?
The value was 40–250.

Which inhibition at 3000 µM [1] does the source give for C[n+]1cccc(C(N)=O)c1 [1MeN, 1-methylnicotinamide] here?
Its inhibition at 3000 µM is less than 25%.

What about the IC50 [1, 7] of the same compound?
Its IC50 is roughly 4000 µM.

For Nc1ncnc2c1ncn2[C@@H]1O[C@H](COP(=O)(O)OP(=O)(O)O)[C@@H](O)[C@H]1O [ADP, adenosine 5’-diphosphate], which inhibition at 3000 µM [1] is on record?
The inhibition at 3000 µM was 35%.

And the IC50 [1, 7]?
The IC50 was roughly 4500 µM.

With Nc1ncnc2c1ncn2[C@@H]1O[C@H](COP(=O)(O)OP(=O)(O)OP(=O)(O)O)[C@@H](O)[C@H]1O [ATP, adenosine 5’-triphosphate] as the compound, how does the “Hill coeff, nH” value [1, 4] read?
The value was 1.7 ± 0.3.

And the S0.5 [1, 4]?
Its S0.5 is 126 ± 13 µM.

What about the S0.5 ([1]; 50 μM GTP) of the same compound?
Its S0.5 is 81 ± 5 µM.

What about the “Hill coeff, nH” value ([1]; 60 μM UTP) of the same compound?
The value was 1.9 ± 0.4 (5).

What about the S0.5 ([1]; 60 μM UTP) of the same compound?
The S0.5 was 310 ± 20 µM.

What about the S0.5 ([1]; 500 μM GTP) of the same compound?
Its S0.5 is 155 ± 25 µM.

What about the “Hill coeff, nH” value [1, 8] of the same compound?
The value was 1.7 ± 0.2 (18)^c.

Which “IC50^ox/IC50^red” value [1] does the source give for NC(=O)C1=CN([C@@H]2O[C@H](COP(=O)(O)OP(=O)(O)OC[C@H]3O[C@@H](n4cnc5c(N)ncnc54)[C@H](OP(=O)(O)O)[C@@H]3O)[C@@H](O)[C@H]2O)C=CC1 [NADPH, 1,4 dihydronicotinamide adenine dinucleotide 2’-phosphate (reduced)] here?
The value was 2.8.

What about the IC50 [1, 5] of the same compound?
The IC50 was 450 ± 20 µM.
